Results on 7 compounds are retold here after patent publication US9603829B2, “HSP90 inhibitors with modified toxicity” (THE REGENTS OF THE UNIVERSITY OF COLORADO, a body corporate, priority 2011, dated 2017).

Read-outs that look alike come from different tables or passages of the source.

Data set [1] deals with SHSY-5Y cells. Put plainly: MTT growth inhibition assay in SHSY-5Y dopaminergic cells. In kind it is cell-based, human. The note with it: read-out: SHSY-5Y IC50. As to the method: The 19-substituted benzoquinone ansamycins were also tested in vitro for their ability to reduce the toxicity of BQAs to SH-SY5Y cells a dopaminergic model system of relevance to neurodegenerative disease. Referring to FIG. 9, toxicity of BQAs in SH-SY-5Y cells was measured using trypan blue exclusion (panel A), MTT growth inhibition assay (panel B) and annexin V/PI staining for apoptosis (panel C). Cells in A and C were treated with BQAs (5 μM) for 16 h; cells in B were treated with BQAs for 4 h then allowed to grow in drug-free medium for 72 h. […] The combination of these two properties are likely to be important to the neuroprotective properties of the 19-substituted BQAs.
Growth inhibition assays (MTT) were conducted in human SHSY-5Y cells following a 4 hr treatment with GA or 19Me-GA. Cell were allowed to grow for 72 hrs following drug treatment. The 19-methyl substituted compounds in all series were minimally toxic (see FIG. 12 for data with geldanamycin, MTT assay, results are expressed as the mean±SD, n=3).

Data set [2] is described as follows: Glutathione conjugation of benzoquinone ansamycins (HPLC, LC-MS). The note with it: 50 μM BA, pH 7.4, room temperature. Type of data set: in vitro ADME. As to the method: BA-GSH conjugate formation was analyzed by HPLC at 270 nm and further confirmed by LC-MS.
Data set [3] deals with MDA468/NQ16 breast cancer cells. As to the kind of experiment: MTT growth inhibition in isogenic MDA468/NQ16 and MDA468 cells. Type of data set: cell-based, human. The note with it: NQO1-rich vs NQO1-null isogenic cells. As to the method:
The 19-substituted benzoquinone ansamycins were also tested in vitro for their ability to inhibit growth similar to DMAG in human breast cancer cells (FIG. 10). MDA468/NQ16 breast cancer cells were treated with 19-substituted DMAG analogs for 4 hours, after which drug-containing media was removed and cells were allowed to grow for an additional 72 h. Cell viability was determined using the MTT assay.
(§1) The ability of 19-substituted BQAs to induce growth inhibition was measured by MTT in isogenic MDA468 (null NQO1) and MDA468/NQ16 (high NQO1) cells. […] Biomarkers of Hsp90 inhibition (Raf-1, AKT degradation and Hsp70 induction) were more pronounced in MDA468/NQ16 cells compared to MDA468 cells following treatment with 19-substituted DMAG analogs.

Data set [4] deals with Hsp90 (Raf-1, AKT degradation and Hsp70 induction). As to the kind of experiment: Biomarkers of Hsp90 inhibition in MDA468/NQ16 cells. Type of data set: cell-based, human. As to the method: as §1
The conditions of data set [5]: Phase I / phase 1 clinical trials; cited from earlier work.
Data set [6] deals with MiaPaCa2 human pancreatic cancer cells. As to the kind of experiment: MTT growth inhibition in MiaPaCa2 cells. In kind it is cell-based. The conditions noted are these: 4 hr treatment, then 72 h growth, MTT; read-out: IC50 MiaPaCa2. As to the method: The inventors also examined the ability of 19 BQAs to inhibit the growth of human pancreatic cancer cell lines (FIG. 16). For growth inhibition studies (MTT) cells were treated with drugs for 4 hr and then allowed to grow for 72 h. For biomarker studies MiaPaCa2 cells were treated with DMAG analogs (5 μM) for 24 hr. 19 BQAs inhibit the growth of human pancreatic cancer cell lines (FIG. 16A, 16B) and induce biomarkers of Hsp90 inhibition (FIG. 16C) using isogenic Panc-1 (NQO1 null) and Panc-1/C5 (NQO1 expressing) cell lines.

Data set [7] relates to primary mouse hepatocytes. Put plainly: Hepatotoxicity in primary mouse hepatocytes (MTT). Type of data set: cell-based. The conditions noted are these: 4 hr, confirmed by Trypan Blue and AST leakage. As to the method:
The inventors next tested the effect of 19-substitution of BQAs on hepatotoxicity in isolated hepatocyte systems. Isolated primary mouse hepatocytes were grown on coated 96-well plates and exposed to BQAs for 4 h after which their survival was determined using the MTT assay.
As described above, a major obstacle in the development of BQA as drugs has been their ability to induce hepatotoxicity in preclinical studies. […] Toxicity was measured using MTT assay and confirmed using Trypan Blue and AST leakage. The data shown in FIG. 19 were generated using MTT analysis but similar readouts were obtained using either trypan blue exclusion or leakage of AST from hepatocytes.

Setting [8] is: 4 hr treatment, then 72 hrs growth, MTT.

For the compound `C=CCNC1=C2C[C@@H](C)C[C@H](OC)[C@H](O)[C@@H](C)/C=C(\C)[C@H](OC(N)=O)[C@@H](OC)/C=C\C=C(/C)C(=O)NC(=C(c3ccccc3)C1=O)C2=O` [19Ph-17AAG, (4E,6Z,8S,9S,10E,12S,13R,14S,16R)-19-(Allylamino)-13-hydroxy-8,14-dimethoxy-4,10,12,16-tetramethyl-3,20,22-trioxo-21-phenyl-2-azabicyclo[16.3.1]docosa-1(21),4,6,10,18-pentaen-9-yl carbamate], in data set [1] (Homo sapiens, SH-SY5Y), the IC50 is > 20 µM.
The same measure, in the same setting: next, `COC1=C2C[C@@H](C)C[C@H](OC)[C@H](O)[C@@H](C)/C=C(\C)[C@H](OC(N)=O)[C@@H](OC)/C=C\C=C(/C)C(=O)NC(=C(C)C1=O)C2=O` [19Me-GA, (4E,6Z,8S,9S,10E,12S,13R,14S,16R)-13-Hydroxy-8,14,19-trimethoxy-,10,12,16,21-pentamethyl-3,20,22-trioxo-2-azabicyclo[16.3.1]docosa-1(21),4,6,10,18-pentaen-9-yl carbamate]: > 10 µM.
On to `CO[C@H]1/C=C\C=C(/C)C(=O)NC2=CC(=O)C(NCCN3CCCC3)=C(C[C@@H](C)C[C@H](OC)[C@H](O)[C@@H](C)/C=C(\C)[C@@H]1OC(N)=O)C2=O` [17AEP-GA, 17-demethoxy-17-[[2-(pyrrolidin-1-yl)ethyl]amino]-geldanamycin], for which the “fraction conjugated with glutathione” value in data set [2] (5 mM glutathione, within 10 h) is listed as “about 90%”.
Take `C=CCNC1=C2C[C@@H](C)C[C@H](OC)[C@H](O)[C@@H](C)/C=C(\C)[C@H](OC(N)=O)[C@@H](OC)/C=C\C=C(/C)C(=O)NC(=CC1=O)C2=O` [17AAG, 17-demethoxy-17-(2-propenylamino)-geldanamycin, reference compound]: the “decrease in IC50 in MDA468/NQ16 cells compared to MDA468 cells” value in data set [3] is “greater than 66 fold”. For the same compound, the “effect on markers of Hsp90 inhibition (Hsp70 induction and Raf-1 degradation) in MDA468/NQ16 compared to MDA468 cells” value in data set [4] was “greater effect on markers of Hsp90 inhibition”. Further, the “hepatotoxicity / toxicity in clinical trials” value (“hepatotoxicity / toxicity” for short) in data set [5] is given as “dose-limiting toxicity”. For the same compound, the IC50 in data set [1] (setting [8]) was determined as 16.2 µM.
Consider `CO[C@H]1/C=C\C=C(/C)C(=O)NC2=CC(=O)C(NCCN(C)C)=C(C[C@@H](C)C[C@H](OC)[C@H](O)[C@@H](C)/C=C(\C)[C@@H]1OC(N)=O)C2=O` [DMAG, 17-demethoxy-17-[[2-(dimethylamino)ethyl]amino]-geldanamycin, reference compound], for which the concentration for half-maximal inhibition (IC50) in data set [6] was 0.13 ± 0.01 µM; in data set [1] (setting [8]) it was 9.4 µM. Also, the 17-DMAG-SG conjugate formed entry in data set [2] (5 mM reduced glutathione, within 4 h) is recorded as “approximately 47 μM”. The “hepatotoxicity / toxicity” value in data set [5] is recorded as “significant toxicities”. For the same compound, in data set [7], the hepatotoxicity entry is listed as “significant hepatotoxicity”.
Turning to `COC1=C2C[C@@H](C)C[C@H](OC)[C@H](O)[C@@H](C)/C=C(\C)[C@H](OC(N)=O)[C@@H](OC)/C=C\C=C(/C)C(=O)NC(=CC1=O)C2=O` [GA, geldanamycin, reference compound], the “hepatotoxicity / toxicity” value in data set [5] was “unacceptable hepatotoxicity”. In data set [1] (Homo sapiens, SH-SY5Y, 4 hr treatment, then 72 hrs growth, MTT), the IC50 is 0.133 µM.
For `C=CCNC1=C2C[C@@H](C)C[C@H](OC)[C@H](O)[C@@H](C)/C=C(\C)[C@H](OC(N)=O)[C@@H](OC)/C=C\C=C(/C)C(=O)NC(=C(C)C1=O)C2=O` [19Me-17AAG, (4E,6Z,8S,9S,10E,12S,13R,14S,16R)-19-(Allylamino)-13-hydroxy-8,14-dimethoxy-4,10,12,16,21-pentamethyl-3,20,22-trioxo-2-azabicyclo[16.3.1]docosa-1(21),4,6,10,18-pentaen-9-yl carbamate], the IC50 in data set [1] (Homo sapiens, SH-SY5Y) is > 20 µM.
